Results on one molecule are retold here after patent US10800741B2 (ANCUREALL PHARMACEUTICAL (SHANGHAI) CO., LTD., priority 2017, dated 2020).

Test in all cases: KINOMEscan in vitro binding to 468 labeled protein kinases
Assay [1] concerns the target T1, protein kinases (Homo sapiens, UniProt P36888, K663Q).
T1 construct: purchased Discovery X company (USA), KINOMEscan screening platform
T1 sequence (P36888 27-993 K663Q): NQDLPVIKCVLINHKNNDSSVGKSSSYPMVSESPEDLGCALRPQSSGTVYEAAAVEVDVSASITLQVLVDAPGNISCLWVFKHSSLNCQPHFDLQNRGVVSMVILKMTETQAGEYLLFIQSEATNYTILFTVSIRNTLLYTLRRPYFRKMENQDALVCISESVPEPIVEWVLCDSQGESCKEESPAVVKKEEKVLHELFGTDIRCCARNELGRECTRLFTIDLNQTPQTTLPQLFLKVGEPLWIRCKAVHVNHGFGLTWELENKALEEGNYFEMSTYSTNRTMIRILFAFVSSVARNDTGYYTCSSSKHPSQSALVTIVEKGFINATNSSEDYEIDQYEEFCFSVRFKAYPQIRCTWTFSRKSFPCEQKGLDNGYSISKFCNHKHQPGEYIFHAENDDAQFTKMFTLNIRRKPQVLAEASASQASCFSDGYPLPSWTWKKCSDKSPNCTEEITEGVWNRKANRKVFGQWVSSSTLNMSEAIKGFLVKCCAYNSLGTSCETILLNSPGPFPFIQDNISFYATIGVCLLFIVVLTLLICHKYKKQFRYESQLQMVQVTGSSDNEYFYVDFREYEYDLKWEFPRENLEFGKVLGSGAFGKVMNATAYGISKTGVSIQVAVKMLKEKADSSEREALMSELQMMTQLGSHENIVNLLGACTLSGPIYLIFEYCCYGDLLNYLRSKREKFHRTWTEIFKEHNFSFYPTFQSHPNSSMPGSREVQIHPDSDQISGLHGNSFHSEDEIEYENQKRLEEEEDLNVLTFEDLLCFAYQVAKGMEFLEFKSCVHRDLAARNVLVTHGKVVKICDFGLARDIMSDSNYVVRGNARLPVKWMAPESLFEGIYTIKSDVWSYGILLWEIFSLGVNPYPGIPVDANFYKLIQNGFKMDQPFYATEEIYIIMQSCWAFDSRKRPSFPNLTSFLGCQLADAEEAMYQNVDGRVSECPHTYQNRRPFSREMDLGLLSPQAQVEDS
To be noted: FLT3(K663Q), read-out: Test compound/solvent control (%). The procedure:
(§1) Test Example 6 Determination of Binding Affinity of the Present Compounds on Protein Kinases In Vitro
(§2) KINOMEscan screening platform of Discovery X company (USA) was used to identify the binding targets of the present compounds to protein kinases. Compound 66 of the present invention was dissolved in DMSO (Sigma Aldrich) at concentrations of 1000 nM, 10 nM and 1 nM, and then was subjected to in vitro binding reaction with 468 labeled protein kinases. Two samples were taken in parallel for each assay sample.
(§3) The lower the percentage of the test compound to the solvent control, the stronger the binding affinity of the test compound to the protein kinase in vitro.

Assay [2] concerns the target T2, protein kinases (Homo sapiens, UniProt P10721, V559D).
T2 construct: purchased Discovery X company (USA), KINOMEscan screening platform
To be noted: KIT(V559D), read-out: Test compound/solvent control (%). The procedure: as §1, §2, §3

The target of assay [3] is T3, protein kinases (Homo sapiens, UniProt P07949).
T3 construct: purchased Discovery X company (USA), KINOMEscan screening platform
To be noted: RET, read-out: Test compound/solvent control (%). The procedure:
as §1, §2, §3

In assay [4] the target is T4, protein kinases (Homo sapiens, UniProt P16234).
T4 construct: purchased Discovery X company (USA), KINOMEscan screening platform
To be noted: PDGFRA, read-out: Test compound/solvent control (%). The procedure:
as §1, §2, §3

Assay [5] has as its target T5, protein kinases (Homo sapiens, UniProt P08631).
T5 construct: purchased Discovery X company (USA), KINOMEscan screening platform
To be noted: HCK, read-out: Test compound/solvent control (%). The procedure:
as §1, §2, §3

Assay [6] concerns the target T6, protein kinases (Homo sapiens, UniProt P00533, G719S).
T6 construct: purchased Discovery X company (USA), KINOMEscan screening platform
To be noted: EGFR(G719S). The procedure: as §1, §2, §3

Assay [7] addresses T7, protein kinases (Homo sapiens, UniProt P00519, Y253F).
T7 construct: purchased Discovery X company (USA), KINOMEscan screening platform
To be noted: ABL1(Y253F)-phosphorylated, read-out: Test compound/solvent control (%). The procedure: as §1, §2, §3

Assay [8] concerns the target T8, protein kinases (Homo sapiens, UniProt O94804).
T8 construct: purchased Discovery X company (USA), KINOMEscan screening platform
To be noted: LOK. The procedure: as §1, §2, §3

T4 sequence (P16234 24-1089): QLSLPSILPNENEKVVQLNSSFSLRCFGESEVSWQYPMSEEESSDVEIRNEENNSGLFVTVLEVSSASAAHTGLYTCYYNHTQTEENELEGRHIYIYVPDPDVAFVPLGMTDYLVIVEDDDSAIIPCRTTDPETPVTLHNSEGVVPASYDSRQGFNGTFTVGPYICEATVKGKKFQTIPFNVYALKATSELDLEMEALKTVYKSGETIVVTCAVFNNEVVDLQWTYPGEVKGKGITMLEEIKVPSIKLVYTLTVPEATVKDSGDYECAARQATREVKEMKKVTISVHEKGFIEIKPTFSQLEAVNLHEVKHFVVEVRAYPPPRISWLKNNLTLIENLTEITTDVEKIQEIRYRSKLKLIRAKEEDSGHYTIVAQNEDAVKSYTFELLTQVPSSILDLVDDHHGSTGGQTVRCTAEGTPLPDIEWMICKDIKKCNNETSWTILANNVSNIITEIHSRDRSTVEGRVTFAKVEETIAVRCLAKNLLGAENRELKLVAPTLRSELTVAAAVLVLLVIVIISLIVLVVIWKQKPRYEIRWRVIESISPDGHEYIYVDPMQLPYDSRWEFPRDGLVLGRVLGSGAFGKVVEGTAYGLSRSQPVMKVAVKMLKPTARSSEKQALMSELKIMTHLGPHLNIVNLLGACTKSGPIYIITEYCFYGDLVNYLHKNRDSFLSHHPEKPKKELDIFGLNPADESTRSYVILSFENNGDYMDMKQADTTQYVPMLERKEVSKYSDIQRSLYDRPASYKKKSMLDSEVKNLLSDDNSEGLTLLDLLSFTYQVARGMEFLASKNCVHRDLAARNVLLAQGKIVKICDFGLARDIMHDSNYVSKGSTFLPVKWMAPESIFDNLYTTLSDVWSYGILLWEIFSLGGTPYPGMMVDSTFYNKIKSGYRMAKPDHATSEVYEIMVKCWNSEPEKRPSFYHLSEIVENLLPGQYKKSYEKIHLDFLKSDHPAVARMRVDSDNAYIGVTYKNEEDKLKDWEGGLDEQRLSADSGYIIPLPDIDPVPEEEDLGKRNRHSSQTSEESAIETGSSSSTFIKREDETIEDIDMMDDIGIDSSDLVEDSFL
T3 sequence (P07949 29-1114): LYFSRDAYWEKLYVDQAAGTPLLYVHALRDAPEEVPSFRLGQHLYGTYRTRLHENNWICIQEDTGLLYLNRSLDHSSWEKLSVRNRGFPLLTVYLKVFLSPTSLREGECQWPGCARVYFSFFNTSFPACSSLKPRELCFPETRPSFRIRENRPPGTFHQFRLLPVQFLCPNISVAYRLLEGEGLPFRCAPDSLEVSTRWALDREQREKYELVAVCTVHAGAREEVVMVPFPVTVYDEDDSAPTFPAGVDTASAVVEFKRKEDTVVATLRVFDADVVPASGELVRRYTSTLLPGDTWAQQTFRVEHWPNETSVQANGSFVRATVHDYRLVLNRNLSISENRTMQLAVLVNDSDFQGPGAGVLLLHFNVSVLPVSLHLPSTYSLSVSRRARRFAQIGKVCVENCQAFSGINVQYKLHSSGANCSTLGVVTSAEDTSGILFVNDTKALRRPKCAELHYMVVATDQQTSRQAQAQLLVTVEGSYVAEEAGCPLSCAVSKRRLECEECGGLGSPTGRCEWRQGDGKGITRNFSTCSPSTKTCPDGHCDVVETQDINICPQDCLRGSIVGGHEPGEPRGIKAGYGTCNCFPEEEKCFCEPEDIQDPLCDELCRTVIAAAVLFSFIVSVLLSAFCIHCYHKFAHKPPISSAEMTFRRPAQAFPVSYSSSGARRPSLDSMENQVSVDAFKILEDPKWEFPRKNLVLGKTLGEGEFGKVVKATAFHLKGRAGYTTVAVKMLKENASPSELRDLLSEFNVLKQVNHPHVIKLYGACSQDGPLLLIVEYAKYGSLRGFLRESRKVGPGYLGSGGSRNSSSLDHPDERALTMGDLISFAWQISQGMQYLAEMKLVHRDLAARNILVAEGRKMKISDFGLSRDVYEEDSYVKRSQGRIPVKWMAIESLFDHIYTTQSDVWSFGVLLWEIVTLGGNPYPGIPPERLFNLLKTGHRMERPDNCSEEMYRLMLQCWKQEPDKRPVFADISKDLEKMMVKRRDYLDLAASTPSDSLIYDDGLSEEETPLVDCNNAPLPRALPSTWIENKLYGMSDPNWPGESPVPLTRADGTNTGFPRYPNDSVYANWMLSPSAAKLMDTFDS
T6 sequence (P00533 25-1210 G719S): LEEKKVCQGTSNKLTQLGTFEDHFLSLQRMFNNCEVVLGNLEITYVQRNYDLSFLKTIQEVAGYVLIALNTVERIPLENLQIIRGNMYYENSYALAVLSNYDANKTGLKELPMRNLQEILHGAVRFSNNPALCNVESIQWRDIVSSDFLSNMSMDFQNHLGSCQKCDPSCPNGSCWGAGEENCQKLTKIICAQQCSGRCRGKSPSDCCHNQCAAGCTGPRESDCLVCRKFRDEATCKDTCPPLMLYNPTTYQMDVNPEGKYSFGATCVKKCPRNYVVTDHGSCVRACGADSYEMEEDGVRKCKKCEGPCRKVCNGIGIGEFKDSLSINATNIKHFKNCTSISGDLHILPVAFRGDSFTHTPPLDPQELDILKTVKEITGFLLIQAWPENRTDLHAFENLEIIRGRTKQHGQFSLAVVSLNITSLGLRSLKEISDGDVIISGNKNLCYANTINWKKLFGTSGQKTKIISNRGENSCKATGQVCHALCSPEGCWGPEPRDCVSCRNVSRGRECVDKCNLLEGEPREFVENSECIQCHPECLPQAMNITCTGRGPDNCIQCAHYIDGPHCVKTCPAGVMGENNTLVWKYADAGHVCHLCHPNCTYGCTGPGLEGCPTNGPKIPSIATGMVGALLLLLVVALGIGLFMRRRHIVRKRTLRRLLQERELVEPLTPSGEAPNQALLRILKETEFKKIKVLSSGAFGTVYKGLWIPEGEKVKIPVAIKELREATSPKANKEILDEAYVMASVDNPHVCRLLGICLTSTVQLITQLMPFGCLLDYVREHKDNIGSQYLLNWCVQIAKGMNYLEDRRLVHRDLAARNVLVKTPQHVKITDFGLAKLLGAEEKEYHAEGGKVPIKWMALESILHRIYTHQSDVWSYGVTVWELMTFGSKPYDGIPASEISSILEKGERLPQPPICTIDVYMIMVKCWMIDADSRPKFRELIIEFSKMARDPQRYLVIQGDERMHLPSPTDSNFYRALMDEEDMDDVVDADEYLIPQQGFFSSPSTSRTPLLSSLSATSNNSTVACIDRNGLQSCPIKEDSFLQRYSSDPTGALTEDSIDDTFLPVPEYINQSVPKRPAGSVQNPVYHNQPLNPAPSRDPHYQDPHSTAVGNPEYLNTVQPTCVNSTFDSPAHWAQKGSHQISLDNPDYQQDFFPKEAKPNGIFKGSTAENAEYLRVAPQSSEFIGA
T5 sequence (P08631 whole entry): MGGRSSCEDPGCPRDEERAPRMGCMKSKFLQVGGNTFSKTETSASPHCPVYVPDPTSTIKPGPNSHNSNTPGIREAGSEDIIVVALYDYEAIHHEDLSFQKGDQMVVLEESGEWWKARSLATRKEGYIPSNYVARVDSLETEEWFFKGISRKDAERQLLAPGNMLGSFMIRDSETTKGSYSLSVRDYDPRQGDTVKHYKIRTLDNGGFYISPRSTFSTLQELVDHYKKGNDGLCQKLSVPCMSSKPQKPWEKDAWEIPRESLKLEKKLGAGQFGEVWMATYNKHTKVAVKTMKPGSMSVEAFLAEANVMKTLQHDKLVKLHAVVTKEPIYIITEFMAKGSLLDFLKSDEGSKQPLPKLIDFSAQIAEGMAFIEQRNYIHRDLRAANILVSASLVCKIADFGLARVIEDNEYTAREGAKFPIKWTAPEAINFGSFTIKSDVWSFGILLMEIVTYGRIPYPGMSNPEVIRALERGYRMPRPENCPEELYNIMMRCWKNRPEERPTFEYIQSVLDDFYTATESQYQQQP
T2 sequence (P10721 26-976 V559D): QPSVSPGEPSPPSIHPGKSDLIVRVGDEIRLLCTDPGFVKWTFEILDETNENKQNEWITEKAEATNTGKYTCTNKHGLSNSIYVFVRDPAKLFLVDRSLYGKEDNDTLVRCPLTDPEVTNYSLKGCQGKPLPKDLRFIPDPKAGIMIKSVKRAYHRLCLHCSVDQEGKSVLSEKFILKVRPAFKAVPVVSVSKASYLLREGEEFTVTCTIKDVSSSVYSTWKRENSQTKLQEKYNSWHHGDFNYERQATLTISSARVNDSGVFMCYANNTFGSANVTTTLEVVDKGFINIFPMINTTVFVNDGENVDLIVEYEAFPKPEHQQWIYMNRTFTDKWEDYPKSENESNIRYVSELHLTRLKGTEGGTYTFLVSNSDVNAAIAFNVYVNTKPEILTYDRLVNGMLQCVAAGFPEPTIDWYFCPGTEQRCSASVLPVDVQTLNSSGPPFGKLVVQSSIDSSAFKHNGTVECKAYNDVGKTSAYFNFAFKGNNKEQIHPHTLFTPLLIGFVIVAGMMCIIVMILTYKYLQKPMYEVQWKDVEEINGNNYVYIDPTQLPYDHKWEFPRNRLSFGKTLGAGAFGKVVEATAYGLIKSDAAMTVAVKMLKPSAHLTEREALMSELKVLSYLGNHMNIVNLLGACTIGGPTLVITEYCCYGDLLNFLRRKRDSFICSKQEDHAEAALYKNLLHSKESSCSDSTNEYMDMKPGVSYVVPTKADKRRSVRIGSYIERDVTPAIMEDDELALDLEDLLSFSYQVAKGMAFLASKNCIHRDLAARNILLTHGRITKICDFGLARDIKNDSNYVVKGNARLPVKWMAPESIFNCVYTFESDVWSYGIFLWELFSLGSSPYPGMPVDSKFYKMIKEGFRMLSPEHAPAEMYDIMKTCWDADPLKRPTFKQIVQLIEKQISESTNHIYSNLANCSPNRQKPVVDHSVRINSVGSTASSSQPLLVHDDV

For `COCCOc1cc2nccc(Oc3ccc(NC(=O)Nc4cc(C(C)(C)C)n[nH]4)c(Cl)c3)c2cc1NC(C)=O` [Compound 66, N-[4-{4-[3-(5-tert-butyl-2H-pyrazol-3-yl)-ureido]-3-chloro-phenoxy}-7-(2-methoxy-ethoxy)-quinolin-6-yl]-acetamide], the remaining binding at 0.001 µM at protein kinases [1] (1 nM) amounted to 89%; on protein kinases [2] (1 nM), 82%; at protein kinases [3] (1 nM) it was 85%; at protein kinases [4] (1 nM), 88%; on protein kinases [5] (1 nM), 60%; on protein kinases [7] (1 nM) it was 80%. The remaining binding at 0.01 µM on protein kinases [1] (10 nM) was 22%; on protein kinases [2] (10 nM) it was 18%; at protein kinases [3] (10 nM), 17%; on protein kinases [4] (10 nM), 34%; on protein kinases [5] (10 nM), 1.7%; at protein kinases [7] (10 nM), 11%. The remaining binding at 1 µM on protein kinases [1] (1000 nM) amounted to 3.2%; at protein kinases [2] (1000 nM) it was 0%; on protein kinases [3] (1000 nM), 0%; on protein kinases [4] (1000 nM) it was 0.15%; on protein kinases [5] (1000 nM), 0%; on protein kinases [7] (1000 nM), 0.1%. The “Test compound/solvent control (%)” value is 77% at protein kinases [6] (1 nM); 18% on protein kinases [6] (10 nM); 0% on protein kinases [6] (1000 nM); 57% on protein kinases [8] (1 nM); 1.3% at protein kinases [8] (10 nM); 0% on protein kinases [8] (1000 nM).
